Measurements: the NIST ThermoML archive (doi:10.1016/j.jct.2010.02.015)
Values joined by “and” are separate entries in the source; they are usually repeats but may differ in a detail not shown here. Equal values may be shown once.

Settings: Gas, Buoyancy - hydrostatic balance with magnetic suspension - two sinkers

[He] [helium]
Settings	mass density
323.15 K, 4247.2 kPa	6.2127 kg/m3
323.15 K, 4247.3 kPa	6.2128 kg/m3 and 6.2127 kg/m3
323.15 K, 4851.3 kPa	7.0783 kg/m3 and 7.0787 kg/m3 and 7.0785 kg/m3
323.15 K, 4851.4 kPa	7.0788 kg/m3
323.15 K, 7550.9 kPa	10.893 kg/m3
323.15 K, 7551 kPa	10.8932 kg/m3 and 10.8928 kg/m3 and 10.8929 kg/m3
323.15 K, 7816.5 kPa	11.2639 kg/m3
323.15 K, 7816.6 kPa	11.264 kg/m3 and 11.2637 kg/m3
323.15 K, 11516 kPa	16.3444 kg/m3 and 16.3445 kg/m3
323.15 K, 11561 kPa	16.4063 kg/m3 and 16.4048 kg/m3
323.15 K, 15406 kPa	21.5262 kg/m3 and 21.5263 kg/m3 and 21.5265 kg/m3
323.15 K, 15457 kPa	21.5934 kg/m3 and 21.5932 kg/m3
323.15 K, 15458 kPa	21.5942 kg/m3
323.15 K, 18569 kPa	25.6255 kg/m3 and 25.6259 kg/m3
323.15 K, 18570 kPa	25.6261 kg/m3 and 25.6263 kg/m3
323.15 K, 19211 kPa	26.4456 kg/m3
323.15 K, 19212 kPa	26.4466 kg/m3 and 26.446 kg/m3
323.15 K, 24300 kPa	32.8067 kg/m3
323.15 K, 24301 kPa	32.8072 kg/m3 and 32.807 kg/m3 and 32.8069 kg/m3
323.15 K, 25287 kPa	34.0129 kg/m3 and 34.0124 kg/m3
323.15 K, 25288 kPa	34.0134 kg/m3
323.15 K, 25289 kPa	34.0147 kg/m3
323.15 K, 30738 kPa	40.5213 kg/m3
323.15 K, 30739 kPa	40.522 kg/m3
323.15 K, 30740 kPa	40.5237 kg/m3 and 40.5227 kg/m3
323.15 K, 32137 kPa	42.1508 kg/m3
323.15 K, 32138 kPa	42.1518 kg/m3 and 42.1514 kg/m3
323.15 K, 32139 kPa	42.1524 kg/m3
323.15 K, 37733 kPa	48.5152 kg/m3
323.15 K, 37734 kPa	48.5163 kg/m3
323.15 K, 37735 kPa	48.5178 kg/m3
323.15 K, 37736 kPa	48.5195 kg/m3
323.15 K, 37959 kPa	48.7675 kg/m3
323.15 K, 37960 kPa	48.7683 kg/m3 and 48.7679 kg/m3
323.15 K, 37961 kPa	48.7698 kg/m3
350 K, 4685.1 kPa	6.3268 kg/m3 and 6.3265 kg/m3
350 K, 4685.2 kPa	6.3269 kg/m3 and 6.3267 kg/m3
350 K, 7452.5 kPa	9.9569 kg/m3 and 9.9566 kg/m3 and 9.9568 kg/m3
350 K, 11158 kPa	14.7003 kg/m3 and 14.7004 kg/m3 and 14.7008 kg/m3
350 K, 15078 kPa	19.5787 kg/m3 and 19.579 kg/m3 and 19.5788 kg/m3
350 K, 15079 kPa	19.5795 kg/m3
350 K, 18991 kPa	24.3127 kg/m3 and 24.3128 kg/m3
350 K, 18992 kPa	24.313 kg/m3 and 24.3135 kg/m3
350 K, 24052 kPa	30.2468 kg/m3 [middle of 4 runs]
350 K, 30655 kPa	37.6887 kg/m3
350 K, 30656 kPa	37.6893 kg/m3 and 37.6888 kg/m3
350 K, 30658 kPa	37.6913 kg/m3
350 K, 37804 kPa	45.3924 kg/m3
350 K, 37805 kPa	45.3931 kg/m3
350 K, 37806 kPa	45.3936 kg/m3 and 45.3946 kg/m3
375 K, 4669.4 kPa	5.8931 kg/m3 and 5.893 kg/m3 and 5.8932 kg/m3
375 K, 7673.3 kPa	9.581 kg/m3 and 9.5809 kg/m3
375 K, 7673.4 kPa	9.5815 kg/m3 and 9.5814 kg/m3
375 K, 7673.5 kPa	9.5816 kg/m3
375 K, 11339 kPa	13.9783 kg/m3 and 13.9779 kg/m3 and 13.9781 kg/m3
375 K, 14992 kPa	18.2509 kg/m3 and 18.2507 kg/m3
375 K, 14993 kPa	18.2512 kg/m3 and 18.2509 kg/m3
375 K, 19144 kPa	22.9816 kg/m3 and 22.9811 kg/m3 and 22.981 kg/m3
375 K, 19145 kPa	22.9817 kg/m3 and 22.9816 kg/m3
375 K, 24590 kPa	28.996 kg/m3
375 K, 24591 kPa	28.9965 kg/m3 and 28.9964 kg/m3 and 28.9966 kg/m3
375 K, 30460 kPa	35.251 kg/m3
375 K, 30461 kPa	35.2518 kg/m3 and 35.2512 kg/m3
375 K, 30462 kPa	35.2524 kg/m3
375 K, 30463 kPa	35.2534 kg/m3
375 K, 37969 kPa	42.9318 kg/m3
375 K, 37970 kPa	42.9322 kg/m3
375 K, 37971 kPa	42.9332 kg/m3
375 K, 37972 kPa	42.9339 kg/m3
375 K, 37973 kPa	42.9352 kg/m3
400 K, 5058.3 kPa	5.9844 kg/m3 [middle of 4 runs]
400 K, 7571.3 kPa	8.8831 kg/m3 and 8.8829 kg/m3
400 K, 7571.4 kPa	8.883 kg/m3 and 8.8833 kg/m3
400 K, 11460 kPa	13.2766 kg/m3 and 13.2769 kg/m3 and 13.2767 kg/m3
400 K, 14777 kPa	16.9377 kg/m3 [middle of 4 runs]
400 K, 19142 kPa	21.6423 kg/m3 and 21.6418 kg/m3 and 21.6416 kg/m3
400 K, 19143 kPa	21.6425 kg/m3
400 K, 23882 kPa	26.6105 kg/m3
400 K, 23883 kPa	26.6111 kg/m3
400 K, 23884 kPa	26.6117 kg/m3 and 26.6114 kg/m3
400 K, 29989 kPa	32.8083 kg/m3
400 K, 29990 kPa	32.8093 kg/m3 and 32.8086 kg/m3
400 K, 29991 kPa	32.8101 kg/m3
